Key:
[1] = test system: A549-ACE2 infected with SARS-CoV-2; test: cell count relative to DMSO; higher = less toxic; settings: 24 h
Caco-2 [2] = test: cell viability relative to DMSO; higher = less toxic; settings: 72 h
Calu-3 [3] = test: as above; settings: 72 h
HepG2 [4] = test: as above; settings: 72 h
U2OS [5] = test: as above; settings: 72 h
Vero E6 [6] = test: as above; settings: 72 h
[7] = test system: A549-ACE2 infected with SARS-CoV-2; test: SARS-CoV-2 infection rate relative to DMSO; higher = more infection; settings: 24 h
A549-ACE2 [8] = test: phospholipidosis EC50; higher = less potent phospholipidosis inducer
A549-ACE2 [9] = test: drug-induced phospholipidosis relative to tamoxifen; higher = more phospholipidosis
[10] = test system: A549-ACE2 infected with SARS-CoV-2; test: morphology score (similarity to uninfected cells); higher = more like uninfected cells; settings: 24 h
Calu-3 [11] = test: relative viability EC50 (midpoint between 100% and the lowest measured viability); higher = less toxic; settings: 72 h
HepG2 [12] = test: as above; settings: 72 h
Vero E6 [13] = test: as above; settings: 72 h
Caco-2 [14] = test: drug sensitivity score (DSS) for viability; higher = more toxic; extreme values may be limits of the assay; settings: 72 h
Calu-3 [15] = test: as above; settings: 72 h
HepG2 [16] = test: as above; settings: 72 h
U2OS [17] = test: as above; settings: 72 h
Vero E6 [18] = test: as above; settings: 72 h
Caco-2 [19] = test: relative viability EC50 (midpoint between 100% and the lowest measured viability); higher = less toxic; settings: 72 h
U2OS [20] = test: as above; settings: 72 h

OC(c1cc(C(F)(F)F)nc2c(C(F)(F)F)cccc12)C1CCCCN1 (configuration not stated) [mefloquine]
Settings | SARS-CoV-2 infection rate [%] | cell count [%] | cell viability [%] | morphology score | phospholipidosis EC50 [µM]
A549-ACE2 [8], 24 h | – | – | – | – | 1.57
A549-ACE2 [8], 48 h | – | – | – | – | 2.78
A549-ACE2 [8], 72 h | – | – | – | – | 3.29
Caco-2 [2], 1 nM | – | – | 108 | – | –
Caco-2 [2], 10 nM | – | – | 103 | – | –
Caco-2 [2], 100 nM | – | – | 102 | – | –
Caco-2 [2], 1000 nM | – | – | 105 | – | –
Caco-2 [2], 10000 nM | – | – | 69.3 | – | –
Calu-3 [3], 1 nM | – | – | 110 | – | –
Calu-3 [3], 10 nM | – | – | 90.2 | – | –
Calu-3 [3], 100 nM | – | – | 105 | – | –
Calu-3 [3], 1000 nM | – | – | 103 | – | –
Calu-3 [3], 10000 nM | – | – | 76.9 | – | –
HepG2 [4], 1 nM | – | – | 98.1 | – | –
HepG2 [4], 10 nM | – | – | 89.9 | – | –
HepG2 [4], 100 nM | – | – | 98.9 | – | –
HepG2 [4], 1000 nM | – | – | 89.7 | – | –
HepG2 [4], 10000 nM | – | – | 10.8 | – | –
U2OS [5], 1 nM | – | – | 106 | – | –
U2OS [5], 10 nM | – | – | 99.6 | – | –
U2OS [5], 100 nM | – | – | 107 | – | –
U2OS [5], 1000 nM | – | – | 99.5 | – | –
U2OS [5], 10000 nM | – | – | 73 | – | –
Vero E6 [6], 1 nM | – | – | 101 | – | –
Vero E6 [6], 10 nM | – | – | 106 | – | –
Vero E6 [6], 100 nM | – | – | 102 | – | –
Vero E6 [6], 1000 nM | – | – | 103 | – | –
Vero E6 [6], 10000 nM | – | – | 78.7 | – | –
[1], 0.1 µM | – | 98 | – | – | –
[1], 0.3 µM | – | 98 | – | – | –
[1], 1 µM | – | 108 | – | – | –
[1], 3 µM | – | 122 | – | – | –
[7], 0.1 µM | 107 | – | – | – | –
[7], 0.3 µM | 94 | – | – | – | –
[7], 1 µM | 89 | – | – | – | –
[7], 3 µM | 32 | – | – | – | –
[10], 0.1 µM | – | – | – | -0.29 | –
[10], 0.3 µM | – | – | – | 0.2 | –
[10], 1 µM | – | – | – | 0.27 | –
[10], 3 µM | – | – | – | 0.84 | –

drug-induced phospholipidosis [%], A549-ACE2 [9]
Settings | 0.3 µM | 0.833333 µM | 3.33333 µM | 6.66667 µM | 10 µM
24 h | 2.22 | 17.4 | 75 | 83.8 | 88.4
48 h | 3.66 | 13 | 67.8 | 86.7 | 102
72 h | 5.04 | 11.3 | 58.8 | 87.9 | 97.7

Settings | drug sensitivity score | relative viability EC50 [µM]
Caco-2 [14] | 1.1 | –
Calu-3 [11] | – | > 10
Calu-3 [15] | 0.6 | –
HepG2 [12] | – | 2.21
HepG2 [16] | 6.7 | –
U2OS [17] | 1.1 | –
Vero E6 [13] | – | > 10
Vero E6 [18] | 0.5 | –

CN(NC(=O)CC(=O)NN(C)C(=S)c1ccccc1)C(=S)c1ccccc1 [elesclomol]
Settings | SARS-CoV-2 infection rate, [7] [%] | cell count, [1] [%] | cell viability, Caco-2 [2] [%] | cell viability, Calu-3 [3] [%] | cell viability, HepG2 [4] [%] | cell viability, U2OS [5] [%] | cell viability, Vero E6 [6] [%] | morphology score, [10]
1 nM | – | – | 93.9 | 107 | 93.4 | 89.6 | 91.5 | –
10 nM | – | – | 74.4 | 83.6 | 99.4 | 89.5 | 96.7 | –
100 nM | – | – | 7 | 68.7 | 69.2 | 56.9 | 69.1 | –
0.3 µM | 93 | 93 | – | – | – | – | – | 0.17
1000 nM | – | – | 9.7 | 29.6 | 66.7 | 7.8 | 41.7 | –
3 µM | 68 | 104 | – | – | – | – | – | 0.63
10 µM | 99 | 107 | – | – | – | – | – | 0.52
10000 nM | – | – | 4.1 | 99.4 | 82.1 | 90.6 | 86 | –
30 µM | 86 | 100 | – | – | – | – | – | 0.39

A549-ACE2 [9]
Settings | drug-induced phospholipidosis [%]
0.3 µM, 24 h | 12.3
0.833333 µM, 24 h | 9.68
3.33333 µM, 24 h | 7.09
6.66667 µM, 24 h | 7.28
10 µM, 24 h | 9.51
30 µM, 24 h | 2.54
30 µM, 48 h | 6.18
30 µM, 72 h | 10

Settings | drug sensitivity score | relative viability EC50 [µM]
Caco-2 [14] | 32.2 | –
Caco-2 [19] | – | 0.0174
Calu-3 [11] | – | > 10
Calu-3 [15] | 0 | –
HepG2 [16] | 9.7 | –
U2OS [17] | 21.4 | –
U2OS [20] | – | 0.1
Vero E6 [13] | – | 0.637
Vero E6 [18] | 8.7 | –

— the supplement of paper PMC13380429
